From patent publication US20240115644A1, “COMPOSITION FOR PREVENTING, IMPROVING OR TREATING GASTRITIS OR PEPTIC ULCER COMPRISING EXTRACT OF CINNAMOMUM CASSIA, FRACTION OF SAID EXTRACT, ISOLATE OF SAID FRACTION OR COMPOUNDS ISOLATED THEREFROM” (CHONG KUN DANG PHARMACEUTICAL CORP., priority 2020, published 2024)

How the values were obtained:
[1] = tested on: Raw 264.7 cells; experiment: Nitric oxide (NO) production inhibitory activity in LPS-stimulated Raw 264.7 cells (Griess reagent); format: cell-based; parameters: NO inhibition rate (%): concentration or dose not given beside the values; settings: for NO: Raw 264.7 cells, LPS 100 ng/ml, sample concentration not given; for NO inhibition rate (%): vs LPS-only group
Procedure: [Measurement of Anti-Inflammatory Effect in Raw 264.7 Cells] Experimental Example 1. Confirmation of Nitric Oxide Production Inhibitory Activity Nitric oxide (NO) measurement was measuring the amount of nitric oxide (NO) in the supernatant of cells as nitrite and nitrate. The safe form after oxidation from nitrite to nitrate was measured using a griess reagent (Sigma, USA). In a […], 3×10^5 cells were cultured for 24 hours. […] Then, all wells except the normal group were stimulated by adding 100 ng/ml Lipopolysaccharide (LPS). After reacting with the griess reagent for 5 minutes, the absorbance was measured at 540 nm. The calibration curve was prepared using sodium nitrite solution, and the concentration of nitrite was calculated through absorbance. The NO inhibition rate was evaluated by a method of comparing with the group treated only with LPS according to Equation 1 below. The result was shown in the following Tables 7, 8, 9, 10, 11 and 12 and FIGS. 2, 3, 4 and 5. NO inhibition rate (%)=100−[(NO production amount of sample addition group*×100)/NO production amount of sample non-addition group*] [Equation 1] *Lipopolysaccharide (LPS) treatment group

[2] = tested on: indomethacin-induced gastric ulcer; experiment: Gastric ulcer index / inhibition rate in indomethacin-induced animal model; format: in vivo, rats; settings: for Inhibition rate (%): gastric ulcer, rats, stomach excised 5 h after; for gastric ulcer inhibition rate compared to Stillen and Rebamipide (in words) / level of gastric ulcer inhibition rate despite the very small amount (in words): indomethacin-induced rats, summary of Table 13 and FIG. 7
Text: [Measurement of gastric ulcer inhibitory effect in animals]
Experimental Example 2. Confirmation of Gastric Ulcer Inhibition Rate
Evaluation of Gastric Ulcer Index in Indomethacin-Induced Animal Model
For test animals, 7-week-old male rats without specific pathogens (SPF) were randomly distributed to each group by a randomized method so that the average body weight was distributed as evenly as possible after the adaptation period (7 days). The administration route was single administration of artemisia extract, and rebamipide and ethyl acetate pretreated water extract of Cinnamomum cassia, fraction (N2-1), 3,4-dihydroxybenzaldehyde, ferulic acid, 4-hydroxycinnamaldehyde, as oral administration, respectively, and the dose was calculated and administered as 10 mL/Kg based on the body weight measured on the day of administration. All animals were fasted 48 hours before administration of the test substance and control drug, and then each test substance and control drug were orally administered, and at 30 minutes after administration, indomethacin prepared in advance was orally administered at a dose of 80 mg/kg. After anesthesia with diethyl ether at 5 hours after administration of indomethacin, the stomach was excised and the gastric mucosa was photographed with a digital camera. The area of the damaged part was analyzed using ImageJ software (NIH, Bethesda, MD). The gastric ulcer index was measured according to the following equation.
Gastric ulcer index (%)=(damaged area/total area)×100 [Equation 2]

[3] = Prep-HPLC purified products from N2-1
[4] = single oral dose 1.5 mg/kg 30 min before indomethacin 80 mg/kg p.o.
[5] = Prep-HPLC purified products from R2-2

Structure (SMILES)	NO [1, 3]	NO inhibition rate (%) [1, 3]	gastric ulcer inhibition rate compared to Stillen and Rebamipide (in words) [2]	level of gastric ulcer inhibition rate despite the very small amount (in words) [2]	NO [1, 5]	NO inhibition rate (%) [1, 5]	further results
COc1cc(/C=C/C(=O)O)ccc1O [Compound A, ferulic acid]	49.57 µM	0%	excellent gastric ulcer inhibition rate	very high level of gastric ulcer inhibition rate			Inhibition rate (%) [2, 4]: 61.8%
O=C(NC(Cc1cc(=O)[nH]c2ccccc12)C(=O)O)c1ccc(Cl)cc1 (stereo not shown) [Rebamipide, reference compound]							Inhibition rate (%) ([2]; single oral dose 30 mg/kg 30 min before indomethacin 80 mg/kg p.o.): 21.5%
O=C/C=C/c1ccc(O)cc1 [Compound B, 4-hydroxycinnamaldehyde]	35.18 µM	29%	excellent gastric ulcer inhibition rate	very high level of gastric ulcer inhibition rate			Inhibition rate (%) ([2]; single oral dose 2.0 mg/kg 30 min before indomethacin 80 mg/kg p.o.): 46.1%
COc1cc(C(=O)O)cc(OC)c1O [Compound E, syringic acid]					47.83 µM	0%	
O=Cc1ccc(O)c(O)c1 [Compound D, 3,4-dihydroxybenzaldehyde]			excellent gastric ulcer inhibition rate	very high level of gastric ulcer inhibition rate	44.41 µM	10%	Inhibition rate (%) [2, 4]: 61.3%
COc1cc(C(=O)O)ccc1O [Compound F, vanillic acid]					49.88 µM	0%	
O=C(O)CCc1ccccc1O [Compound C, 3-(2-hydroxyphenyl)propanoic acid]	48.54 µM	0%					
